Experimental data from PubChem BioAssay (NCI).
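Where inhibition never reached the appropriate level, the endpoint shown equals the highest concentration tested. Otherwise, values were interpolated linearly from a five-concentration, 48-hour dose response in 96-well plates. GI50: concentration for 50% inhibition of growth. TGI denotes the concentration required for complete inhibition of growth.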

What was measured:
Experiment in all cases: DTP human tumour cell line panel, 48 h
COLO 205 colon = tested on: COLO 205 colon
EKVX NSCLC = tested on: EKVX NSCLC
KM12 colon = tested on: KM12 colon
M19-MEL melanoma = tested on: M19-MEL melanoma
OVCAR-3 ovarian = tested on: OVCAR-3 ovarian
SF-539 CNS = tested on: SF-539 CNS
U251 CNS = tested on: U251 CNS
UACC-257 melanoma = tested on: UACC-257 melanoma
RXF 393 renal = tested on: RXF 393 renal
HCC-2998 colon = tested on: HCC-2998 colon

Compound	TGI (COLO 205 colon)	TGI (EKVX NSCLC)	TGI (KM12 colon)	TGI (M19-MEL melanoma)	TGI (OVCAR-3 ovarian)	TGI (SF-539 CNS)	TGI (U251 CNS)	TGI (UACC-257 melanoma)	TGI (RXF 393 renal)	TGI (HCC-2998 colon)	GI50 (COLO 205 colon)	GI50 (EKVX NSCLC)	GI50 (HCC-2998 colon)	GI50 (KM12 colon)	GI50 (OVCAR-3 ovarian)	GI50 (RXF 393 renal)	GI50 (SF-539 CNS)	GI50 (U251 CNS)	GI50 (UACC-257 melanoma)
CCOC(=O)/C(=C/c1cccc(OC)c1)N(CC)CC	> 100 µM	> 100 µM	> 100 µM	> 100 µM	> 100 µM	> 100 µM	> 100 µM	> 100 µM	–	–	–	–	–	–	–	–	–	–	–
NC(=O)/C=C/C(=O)O	> 5000 µM	–	> 5000 µM	> 5000 µM	–	> 5000 µM	> 5000 µM	> 5000 µM	> 5000 µM	–	–	–	–	–	–	–	–	–	–
COc1ccc(Nc2nc3ccccc3nc2-c2cccs2)cc1	> 100 µM	> 100 µM	> 100 µM	–	> 100 µM	> 100 µM	> 100 µM	> 100 µM	> 100 µM	> 100 µM	–	–	–	–	–	–	–	–	–
CCOC(=O)C(=O)Nc1ccccc1C(F)(F)F	> 100 µM	> 100 µM	> 100 µM	–	> 100 µM	> 100 µM	> 100 µM	> 100 µM	> 100 µM	> 100 µM	–	–	–	–	–	–	–	–	–
CC(=O)[CH-]C(C)=O.[CH2-]C.[CH2-]C.[Tl+3]	> 100 µM	> 100 µM	> 100 µM	–	> 100 µM	> 100 µM	> 100 µM	> 100 µM	> 100 µM	> 100 µM	> 100 µM	> 100 µM	> 100 µM	> 100 µM	> 100 µM	> 100 µM	> 100 µM	> 100 µM	> 100 µM
Cc1ncc(C(=O)Nc2ccc(CN3CCN(C)CC3)c(C(F)(F)F)c2)cc1C#Cc1cnc(NC2CC2)c2ncccc12	4.51 µM	1.21 µM	0.819 µM	–	1.28 µM	1.11 µM	1.11 µM	1.59 µM	1.1 µM	2.88 µM	1.36 µM	0.659 µM	1.27 µM	0.197 µM	0.693 µM	0.606 µM	0.612 µM	0.581 µM	0.719 µM
COc1ccccc1-c1cc(=O)c2ccc(C)nc2[nH]1	> 100 µM	> 100 µM	> 100 µM	–	> 100 µM	> 100 µM	> 100 µM	> 100 µM	> 100 µM	> 100 µM	–	–	–	–	> 100 µM	–	–	> 100 µM	–
O=C1C(SCCO)=C(SCCO)C(=O)c2ccccc21	3.27 µM	3.08 µM	3.76 µM	–	3.22 µM	2.02 µM	2.01 µM	2.59 µM	2.8 µM	3.42 µM	–	–	–	–	–	–	–	–	–
C=CCO/N=C/c1cc(NC(=S)c2ccoc2C)ccc1Cl	27.5 µM	29.2 µM	25.5 µM	–	24.3 µM	44.6 µM	60.6 µM	34 µM	65.8 µM	24 µM	–	–	–	–	–	–	–	–	–
COCCOCCOCc1n(Cc2ccc3ccccc3n2)c2ccccc2[n+]1Cc1ccc2ccccc2c1	0.876 µM	10.8 µM	1.63 µM	–	1.52 µM	1.4 µM	1.26 µM	0.877 µM	4.46 µM	2.04 µM	0.281 µM	1.27 µM	0.468 µM	0.388 µM	0.358 µM	1.68 µM	0.338 µM	0.328 µM	0.293 µM
C=C(CN1CCc2ccccc2C1)c1ccc(C(=O)Nc2ccccc2N)cc1	7.4 µM	> 50 µM	4.54 µM	–	6.76 µM	4.28 µM	4.8 µM	16.2 µM	4.76 µM	0.379 µM	1.52 µM	5.68 µM	0.0899 µM	1.26 µM	1.38 µM	1.37 µM	1.3 µM	0.911 µM	1.55 µM
CCCCCCCCCCCC[n+]1ccccc1 (tested in a mixture with another compound)	1.52 µM	5.13 µM	1.59 µM	–	2.44 µM	3.44 µM	2.2 µM	2.88 µM	4.44 µM	2.12 µM	0.404 µM	0.428 µM	0.646 µM	0.38 µM	0.722 µM	0.682 µM	1.43 µM	0.443 µM	0.772 µM
CCCCCCCCCCCCCC(=O)OCC1OC(=O)CC1O (centres undefined)	> 100 µM	> 100 µM	> 100 µM	–	> 100 µM	> 100 µM	> 100 µM	> 100 µM	> 100 µM	> 100 µM	–	–	–	–	–	–	–	–	–
CC1CCCc2c1nn(C(=O)/C=C(\N)c1ccccc1)c2N (centres undefined)	79.1 µM	44.1 µM	> 100 µM	–	32.6 µM	> 100 µM	> 100 µM	> 100 µM	> 100 µM	85.5 µM	10.1 µM	16.5 µM	14.6 µM	5.97 µM	5.61 µM	31.3 µM	17.7 µM	5.06 µM	25.6 µM
CNC(SC)=C1C(=O)OC(C)(C)OC1=O	> 100 µM	> 100 µM	> 100 µM	> 100 µM	> 100 µM	–	37.7 µM	> 100 µM	> 100 µM	> 100 µM	–	–	–	–	–	–	–	–	–
COc1ccc(-c2nnc(N3CCN(C(=O)CN4CCN(c5ccc(OC)cc5)CC4)CC3)nc2-c2ccc(OC)cc2)cc1	29.7 µM	> 65.9 µM	8.4 µM	–	4 µM	33.2 µM	66.1 µM	39.5 µM	38.8 µM	47.2 µM	6.36 µM	7.86 µM	18.8 µM	2.93 µM	2.1 µM	5.38 µM	14.1 µM	5.31 µM	17.5 µM
CC(=O)[O-].CC(=O)[O-].CC(=O)[O-].CC(=O)[O-].[Mo+2].[Mo+2]	> 100 µM	> 100 µM	> 100 µM	–	> 100 µM	> 100 µM	> 100 µM	> 100 µM	> 100 µM	> 100 µM	> 100 µM	> 100 µM	> 100 µM	> 100 µM	> 100 µM	> 100 µM	> 100 µM	> 100 µM	> 100 µM
